Key:
[1] = test system: TNF-α; assay: Immunohistochemical assessment of TNF-α expression in wounded skin; assay type: in vivo, male Wistar rats; conditions: wounded skin of diabetic rats; negative control 0.47±0.048; mean±SD, n=6
Method: (§1) Rats were anesthetized by xylazine and ketamine (10 mg/kg and 100 mg/kg, respectively IP injection). The dorsal surface was shaved, the skin was sterilized by povidone-iodine solution, and an excision circle (1 cm diameter) was made on dorsal surface. After the excision, the wounds were cleaned and dried using sterile saline solution and sterile pads, respectively. Subcutaneous injection of 2% solution of lidocaine hydrochloride having 1:80,000 epinephrine (4.4 mg/kg) was performed near the wound area to reduce pain. […] All treatments were topically applied daily for a total of 10 days. The wounds were wrapped with sterile gauze dressings and changed daily. At days 0, 4, 7, and 10, wounds were photographed and assessed. Animals were sacrificed by beheading at the end of day 10 and the skin of wound area was cut out. […]

[2] = test system: IL-6; assay: Immunohistochemical assessment of IL-6 expression in wounded skin; assay type: in vivo, male Wistar rats; conditions: wounded skin of diabetic rats; negative control 0.42±0.044; mean±SD, n=6
Method: as §1

[3] = test system: excision wound on dorsal surface of diabetic rats; assay: Wound closure in wounded diabetic rats, topical hydrogel treatment; assay type: in vivo, male Wistar rats; conditions: day 7, topical daily, 1.5% w/v HPMC hydrogel (TA 4.1, GA 12.5, thioctamer 16.6 mg/g gel), mean±SD, n=6
Method: Rats were anesthetized by xylazine and ketamine (10 mg/kg and 100 mg/kg, respectively IP injection). The dorsal surface was shaved, the skin was sterilized by povidone-iodine solution, and an excision circle (1 cm diameter) was made on dorsal surface. After the excision, the wounds were cleaned and dried using sterile saline solution and sterile pads, respectively. Subcutaneous injection of 2% solution of lidocaine hydrochloride having 1:80,000 epinephrine (4.4 mg/kg) was performed near the wound area to reduce pain. […] At days 0, 4, 7, and 10, wounds were photographed and assessed. […]

[4] = test system: wounds in diabetic rats; conditions: cited from earlier work
[5] = test system: wound tissues of diabetic rats; assay: Histological investigation of wound tissue (H&E, Masson's trichrome); assay type: in vivo, male Wistar rats; conditions: for Ang = Angio-genesis / CD = Collagen deposition / FP = Fibroblast proliferation / GT = Granulation tissue / IC = Inflammatory cell infiltration / RE = Re-epithelization: day 10 wound healing, topical application, diabetic rats; for healing rate by histology (in words): wound tissues collected on day 10, H&E or Masson's trichrome
Method: Thirty 210-240 g male Wistar rats were provided by KAU's animal facility and were maintained on a 12-hr dark-light cycle at a temperature of 22 ±2° C. […] Induction of diabetes in rats was carried out as formerly described, i.e. prior to the study, rats were intra-peritoneally injected with streptozotocin (50 mg/kg) for two weeks. Go Accu-Chek was utilized for assessing the level of fasting blood glucose (Roche, Mannheim, Germany) Moderate-diabetic rats with level of fasting blood glucose (200-300 mg/100 mL) were chosen for the experiment.
Rats were anesthetized by xylazine and ketamine (10 mg/kg and 100 mg/kg, respectively IP injection). The dorsal surface was shaved, the skin was sterilized by povidone-iodine solution, and an excision circle (1 cm diameter) was made on dorsal surface. After the excision, the wounds were cleaned and dried using sterile saline solution and sterile pads, respectively. Subcutaneous injection of 2% solution of lidocaine hydrochloride having 1:80,000 epinephrine (4.4 mg/kg) was performed near the wound area to reduce pain. […] All treatments were topically applied daily for a total of 10 days. The wounds were wrapped with sterile gauze dressings and changed daily. At days 0, 4, 7, and 10, wounds were photographed and assessed. Animals were sacrificed by beheading at the end of day 10 and the skin of wound area was cut out. From each animal, a part of the obtained skin was retained in 10% neutral formalin, while the other part was preserved at -80° C. for further analyses.
Wound tissues were preserved for 24 h in 10% neutral formalin, then dehydrated using serial concentrations of ethanol, passed through xylene as a clearing agent, and inserted in paraffin. Tissues' paraffin blocks were cut into 5 μm thickness that were rehydrated after dewaxing. Some sections were stained using E&H (eosin and hematoxylin), whereas the remaining were stained with MT (Masson's trichrome). Histological investigation was carried out by a pathologist without prior knowledge of the groups'treatment. On the basis of the abundance/degree of inflammatory cell infiltration, proliferation of fibroblasts, deposition of collagen, angiogenesis, tissue granulation, and re-epithelization, scores were assigned in a range from - to +++.

[6] = test system: wound on rat skin; conditions: seventh day after surgery; topical; negative control 43.0±17.4%; cited from earlier work
[7] = Thioctamer zeta potential and particle size evaluation (Zetasizer Nano ZSP); assay type: physicochemical
Method: Thioctamer was prepared by conjugation of GA and TA in a 1:1 molar ratio. TA was solvated in deionized water (with added of triethanolamine in a 1:1 molar ratio with the amount of TA). GA was dissolved separately in deionized water. The two aqueous solutions were mixed and then vortexed for 60 sec. The prepared thioctamer was assessed for zeta potential and particle size utilizing a Zetasizer Nano ZSP (Malvern Instruments Ltd., Malvern, UK).

zeta potential [7] [mV] | Molecule | TNF-α expression (immunohistochemistry, image analysis) [1] | IL-6 expression (immunohistochemistry, image analysis) [2] | % wound contraction (healing) [3] [%] | time to complete wound closure [4] [days] | Ang = Angio-genesis [5] | CD = Collagen deposition [5] | FP = Fibroblast proliferation [5] | GT = Granulation tissue [5] | IC = Inflammatory cell infiltration [5] | RE = Re-epithelization [5] | healing rate by histology (in words) [5] | healing rate [6] [%]
-26.6±5.39 | O=C(O)CCCCC1CCSS1 (centres unmarked) [TA, thioctic acid] | 0.374±0.039 | 0.324±0.043 | 56.5±5.8 | 8 | + | ++ | ++ | ++ | +++ | ++ | moderate healing rate | 60.7±8.4
– | L-alanine compound with L-tyrosine compound with L-lysine compound with L-glutamic acid acetic acid [GA] | 0.34±0.05 | 0.318±0.033 | 62.6±7.1 | – | + | ++ | ++ | ++ | +++ | ++ | moderate healing rate | –

From patent publication US11497765B1, “Thioctamer expedites wound healing” (King Abdulaziz University, priority 2022, dated 2022)
